Patent publication US6020341A, “Enediyne quinone imines and methods of preparation and use thereof” (priority 1997, dated 2000)
Where two headings read alike, the source gives them in different places.

Key:
CCRF-CEM/VM-1 cells = test: Cytotoxicity, CCRF-CEM/VM-1; format: cell-based, human; settings: for IC50 / IC90: Homo sapiens, CCRF-CEM; for IC90: read-out: Cytotoxic Concentration IC90
Excerpt: (§1) | cell growth by 50% (IC50) in μM.

[1] = tested on: Human breast adenocarcinoma cells (SK-Br-3); test: Cytotoxicity, SK-Br-3; format: cell-based
Excerpt: as §1

[2] = tested on: Human promyelocytic leukemic cell (HL-60); test: Cytotoxicity, HL-60; format: cell-based
Excerpt: as §1

[3] = tested on: Chinese hamster lung cells (DC-3F); test: Cytotoxicity, DC-3F; format: cell-based; settings: for IC50 / IC90: Cricetulus griseus, DC3F; for IC90: read-out: Cytotoxic Concentration IC90
Excerpt: as §1

MT2 cells = test: Cytotoxicity, MT2; format: cell-based; settings: Table 15, MT2
[4] = tested on: Human testicular teratocarcinoma cells (833K); test: Cytotoxicity, 833K; format: cell-based
Excerpt: as §1

[5] = tested on: Chinese hamster lung cells resistant to actinomycin D (DC-3F/ADII); test: Cytotoxicity, DC-3F/ADII; format: cell-based; settings: for IC50 / IC90: Cricetulus griseus, DC3F; for IC90: read-out: Cytotoxic Concentration IC90
Excerpt: as §1

[6] = tested on: Human acute lymphoblastic T cells (CCRF-CEM); test: Cytotoxicity, CCRF-CEM; format: cell-based; settings: for IC50 / IC90: Homo sapiens, CCRF-CEM; for IC90: read-out: Cytotoxic Concentration IC90
Excerpt: as §1

CCRF-CEM/VBL cells = test: Cytotoxicity, CCRF-CEM resistant to vinblastine; format: cell-based, human; settings: for IC50 / IC90: Homo sapiens, CCRF-CEM; for IC90: read-out: Cytotoxic Concentration IC90
Excerpt: as §1

[7] = Table 3, CCRF-CEM/VM-1, EQI-6 = (1)
[8] = Table 4, DC-3F/ADII, EQI-6 = (1)
[9] = Table 14, vinblastine-resistant (VLB100)
[10] = Table 3, CCRF-CEM/VBL, EQI-6 = (1)

COc1cc([C@@H]2c3cc4c(cc3[C@@H](O[C@@H]3O[C@@H]5CO[C@@H](c6cccs6)O[C@H]5[C@H](O)[C@H]3O)[C@H]3COC(=O)[C@H]23)OCO4)cc(OC)c1O [VM26]
resistance of cell line to VM26 (CCRF-CEM/VM-1 cells; CCRF/VM1 versus CCRF/CEM): 50 fold

COc1cc(NS(C)(=O)=O)ccc1Nc1c2ccccc2nc2ccccc12 [m-AMSA, 4'-(9-acridinylamino)methanesulfon-m-anisidide]
IC50 (CCRF-CEM/VM-1 cells; Table 2, CCRF/VM-1 (MDR/TopoII), read-out: concentration required to inhibit cell growth by 50% (IC50)): 1710 nM | IC50 (CCRF-CEM/VM-1 cells; Table 3, CCRF-CEM/VM-1, read-out: Cytotoxic Concentration IC50): 1710 nM | IC90 (CCRF-CEM/VM-1 cells; Table 3, CCRF-CEM/VM-1): 3570 nM | IC50 (CCRF-CEM/VM-1 cells; Table 14, CCRF-CEM/VM-1, read-out: Cytotoxic Concentration IC50): 4050 nM | IC90 (CCRF-CEM/VM-1 cells; Table 14, CCRF-CEM/VM-1): 11000 nM | Cytotoxic Concentration IC95 (CCRF-CEM/VM-1 cells; Table 3, CCRF-CEM/VM-1): 4586 nM | ratio of IC50 to EQI-6 (in parentheses) (CCRF-CEM/VM-1 cells; [7]): 902.1 × | ratio of IC90 to EQI-6 (in parentheses) (CCRF-CEM/VM-1 cells; [7]): 401.3 × | ratio of IC95 to EQI-6 (in parentheses) (CCRF-CEM/VM-1 cells; [7]): 303 × | Cytotoxic Concentration IC95 (CCRF-CEM/VM-1 cells; Table 14, CCRF-CEM/VM-1): 15391 nM | IC50 ([1]; Homo sapiens, SK-BR-3, Table 2, SK-Br-3 (Breast), read-out: concentration required to inhibit cell growth by 50% (IC50)): 551 nM | IC50 ([1]; Homo sapiens, SK-BR-3, Table 4, SK-Br-3, read-out: Cytotoxic Concentration IC50): 551 nM | IC90 ([1]; Homo sapiens, SK-BR-3, Table 4, SK-Br-3, read-out: Cytotoxic Concentration IC90): 84100 nM | Cytotoxic Concentration IC95 ([1]; Table 4, SK-Br-3): 464700 nM | ratio of IC50 to EQI-6 (in parentheses) ([1]; Table 4, SK-Br-3, EQI-6 = (1)): 16.2 × | ratio of IC90 to EQI-6 (in parentheses) ([1]; Table 4, SK-Br-3, EQI-6 = (1)): 449.7 × | ratio of IC95 to EQI-6 (in parentheses) ([1]; Table 4, SK-Br-3, EQI-6 = (1)): 139.7 × | IC50 ([2]; Homo sapiens, HL-60, Table 1, HL-60, read-out: IC50): 38.8 nM | IC50 ([2]; Homo sapiens, HL-60, Table 2, HL60, read-out: concentration required to inhibit cell growth by 50% (IC50)): 39 nM | IC50 ([2]; Homo sapiens, HL-60, Table 3, HL-60, read-out: Cytotoxic Concentration IC50): 38.8 nM | IC90 ([2]; Homo sapiens, HL-60, Table 3, HL-60, read-out: Cytotoxic Concentration IC90): 176 nM | Cytotoxic Concentration IC95 ([2]; Table 3, HL-60): 294 nM | ratio of IC50 to EQI-6 (in parentheses) ([2]; Table 3, HL-60, EQI-6 = (1)): 66.9 × | ratio of IC90 to EQI-6 (in parentheses) ([2]; Table 3, HL-60, EQI-6 = (1)): 67.7 × | ratio of IC95 to EQI-6 (in parentheses) ([2]; Table 3, HL-60, EQI-6 = (1)): 66.8 × | IC50 ([3]; Table 2, DC-3F, read-out: concentration required to inhibit cell growth by 50% (IC50)): 8.8 nM | IC50 ([3]; Table 4, DC-3F, read-out: Cytotoxic Concentration IC50): 8.8 nM | IC90 ([3]; Table 4, DC-3F): 53 nM | IC50 ([3]; Table 13, DC-3F, read-out: Cytotoxic Concentration IC50): 4 nM | IC90 ([3]; Table 13, DC-3F): 17 nM | Cytotoxic Concentration IC95 ([3]; Table 4, DC-3F): 97.5 nM | ratio of IC50 to EQI-6 (in parentheses) ([3]; Table 4, DC-3F, EQI-6 = (1)): 4.9 × | ratio of IC90 to EQI-6 (in parentheses) ([3]; Table 4, DC-3F, EQI-6 = (1)): 4.8 × | ratio of IC95 to EQI-6 (in parentheses) ([3]; Table 4, DC-3F, EQI-6 = (1)): 4.9 × | Cytotoxic Concentration IC95 ([3]; Table 13, DC-3F): 28 nM | IC50 (MT2 cells; Homo sapiens, read-out: Cytotoxic Concentration IC50): 19 nM | IC90 (MT2 cells; Homo sapiens, read-out: Cytotoxic Concentration IC90): 38 nM | Cytotoxic Concentration IC95 (MT2 cells): 48 nM | IC50 ([4]; Homo sapiens, 833K, Table 2, 833K (Testicular), read-out: concentration required to inhibit cell growth by 50% (IC50)): 43 nM | IC50 ([4]; Homo sapiens, 833K, Table 4, 833k, read-out: Cytotoxic Concentration IC50): 43 nM | IC90 ([4]; Homo sapiens, 833K, Table 4, 833k, read-out: Cytotoxic Concentration IC90): 189 nM | Cytotoxic Concentration IC95 ([4]; Table 4, 833k): 311 nM | ratio of IC50 to EQI-6 (in parentheses) ([4]; Table 4, 833k, EQI-6 = (1)): 6.14 × | ratio of IC90 to EQI-6 (in parentheses) ([4]; Table 4, 833k, EQI-6 = (1)): 7.56 × | ratio of IC95 to EQI-6 (in parentheses) ([4]; Table 4, 833k, EQI-6 = (1)): 7.97 × | IC50 ([5]; Table 2, DC-3F/ADII (MDR/Actinomycin D), read-out: concentration required to inhibit cell growth by 50% (IC50)): 71 nM | IC50 ([5]; Table 4, DC-3F/ADII, read-out: Cytotoxic Concentration IC50): 70.7 nM | IC90 ([5]; Table 4, DC-3F/ADII): 825 nM | IC50 ([5]; Table 13, DC-3F/ADII, read-out: Cytotoxic Concentration IC50): 33 nM | IC90 ([5]; Table 13, DC-3F/ADII): 180 nM | Cytotoxic Concentration IC95 ([5]; Table 4, DC-3F/ADII): 1902 nM | ratio of IC50 to EQI-6 (in parentheses) [5, 8]: 12 × | ratio of IC90 to EQI-6 (in parentheses) [5, 8]: 53.6 × | ratio of IC95 to EQI-6 (in parentheses) [5, 8]: 88.9 × | Cytotoxic Concentration IC95 ([5]; Table 13, DC-3F/ADII): 321 nM | IC50 ([6]; Table 1, CCRF-CEM, read-out: IC50): 199 nM | IC50 ([6]; Table 2, CCRF/CEM, read-out: concentration required to inhibit cell growth by 50% (IC50)): 199 nM | IC50 ([6]; Table 3, CCRF-CEM, read-out: Cytotoxic Concentration IC50): 199 nM | IC90 ([6]; Table 3, CCRF-CEM): 1540 nM | IC50 ([6]; Table 14, CCRF-CEM, read-out: Cytotoxic Concentration IC50): 129 nM | IC90 ([6]; Table 14, CCRF-CEM): 755 nM | Cytotoxic Concentration IC95 ([6]; Table 3, CCRF-CEM): 3101 nM | ratio of IC50 to EQI-6 (in parentheses) ([6]; Table 3, CCRF-CEM, EQI-6 = (1)): 398 × | ratio of IC90 to EQI-6 (in parentheses) ([6]; Table 3, CCRF-CEM, EQI-6 = (1)): 702 × | ratio of IC95 to EQI-6 (in parentheses) ([6]; Table 3, CCRF-CEM, EQI-6 = (1)): 838 × | Cytotoxic Concentration IC95 ([6]; Table 14, CCRF-CEM): 1378 nM | IC50 (CCRF-CEM/VBL cells; Table 2, CCRF/VBL (MDR/pg-p), read-out: concentration required to inhibit cell growth by 50% (IC50)): 565 nM | IC50 (CCRF-CEM/VBL cells; Table 3, CCRF-CEM/VBL, read-out: Cytotoxic Concentration IC50): 565 nM | IC90 (CCRF-CEM/VBL cells; Table 3, CCRF-CEM/VBL): 2460 nM | IC50 (CCRF-CEM/VBL cells; Table 14, vinblastine-resistant (VLB100), read-out: Cytotoxic Concentration IC50): 964 nM | IC90 (CCRF-CEM/VBL cells; [9]): 7230 nM | Cytotoxic Concentration IC95 (CCRF-CEM/VBL cells; Table 3, CCRF-CEM/VBL): 4045 nM | ratio of IC50 to EQI-6 (in parentheses) (CCRF-CEM/VBL cells; [10]): 298.9 × | ratio of IC90 to EQI-6 (in parentheses) (CCRF-CEM/VBL cells; [10]): 396 × | ratio of IC95 to EQI-6 (in parentheses) (CCRF-CEM/VBL cells; [10]): 434.9 × | Cytotoxic Concentration IC95 (CCRF-CEM/VBL cells; [9]): 14353 nM

CC[C@]1(O)C[C@@H]2CN(CCc3c([nH]c4ccccc34)[C@@](C(=O)OC)(c3cc4c(cc3OC)N(C)[C@H]3[C@@](O)(C(=O)OC)[C@H](OC(C)=O)[C@]5(CC)C=CCN6CC[C@]43[C@@H]65)C2)C1 [vinblastin]
resistance of cell line to vinblastin (CCRF-CEM/VBL cells; CCRF/VBL100 versus CCRF/CEM): 59 fold

actinomycin D
resistance of cell line to actinomycin D ([5]; DC3F/ADII versus DC3F): 32 fold
